Structures can show the parent of a compound that is named as a salt. Where two headings read alike, the source gives them in different places.
Assays:
[1] = test system: HCV genotype 1a H77 NS3-5B bicistronic subgenomic replicon; experiment: microbe, parasite or virus in culture; format: cell-based; details: Hepatitis C virus
Excerpt: (§1) Two cell lines were used for screening of compounds for inhibiting HCV RNA replication (genoytype 1a and 1b). Genotype la replicon cells, are a Huh-7 derived cell line bearing the genotype 1a H77NS3-5B bicistronic subgenomic replicon. See, Blight, et al., J. Virol. (2003) 77(5): 3181-3190.
(§2) The genotype 1a replicon contains several adaptive mutations (NS4B Q31H, NS5A K68R, NS5A S232I), the luciferase gene and encodes for neomycin resistance. The genotype 1b replicon, also referred to as the ET replicon, is stably transfected with RNA transcripts harboring a I389luc-ubi-neo/NS3-3′/ET replicon with firefly luciferase-ubiquitin-neomycin phosphotransferase fusion protein and EMCV-IRES driven NS3-5B polyprotein containing the cell culture adaptive mutations (E1202G; T12801; K1846T) See, Kreiger, et al., Journal of Virology 75:4614-4624 (2001). Both cell lines were grown in DMEM, supplemented with 10% fetal calf serum, 2 mM Glutamine, Penicillin (100 IU/mL)/Streptomycin (100 μg/mL), 1×nonessential amino acids, and 250 μg/mL G418 (“Geneticin”). They were all available through Life Technologies (Bethesda, Md.). The cells were plated at 0.5×10^4 cells/well in 384 well plates containing compounds. The final concentration of compounds ranged between 0.1 nM to 50 μM and the final DMSO concentration of 0.5%.
(§3) Luciferase activity was measured 48 hours later by adding a Steady glo (Promega, Madison, Wis.). Percent inhibition of replication data was plotted relative to no compound control. Under the same condition, cytotoxicity of the compounds was determined using cell titer glo (Promega, Madison, Wis.). EC50 values were determined from a 10 point dose response curve using 2-4 fold serial dilutions for each compound, which spans a concentration range of at least a 1000 fold. Replicon EC50 values, the concentration of compound required to inhibit 50% of the assay response, were calculated by curve fitting data to the Hill equation, using a non-linear least-squares curve-fitting program. The software tested the data for quality and rejected compounds with high and low activity before fitting the equation below.
(§4) Analysis was performed using an XC50 module and BioAssay Enterprise (Cambridge Soft).

[2] = test system: HCV genotype 1b replicon (ET replicon); experiment: microbe, parasite or virus in culture; format: cell-based; details: Hepatitis C virus
Excerpt: as §1, §2, §3, §4

[3] = Table 2, luciferase activity after 48 hours, read-out: HCV Genotype 1A Replicon EC50
[4] = Table 2, luciferase activity after 48 hours, read-out: HCV Genotype 1B Replicon EC50

Row | SMILES | EC50 [1, 3] [nM] | EC50 [2, 4] [nM] | EC50 ([1]; 48 h, read-out: HCV Genotype 1A Replicon EC50 (nM)) [nM] | EC50 ([2]; 48 h, read-out: HCV Genotype 1B Replicon EC50 (nM)) [nM]
1 | CCCOc1ccc(-c2cc(C(C(=O)OC)n3cc4nc(-c5cccc(F)c5F)nc-4cn3)on2)c(C(F)(F)F)c1 (centres unmarked) [Compound 1, Methyl [2-(2,3-difluorophenyl)-5H-imidazo[4,5-d]pyridazin-5-yl]{3-[4-(propyloxy)-2-(trifluoromethyl)phenyl]-5-isoxazolyl}acetate] | 17 | 3 | – | –
2 | CCCOc1ccc(-c2cc(C(C(=O)OCC)n3cc4nc(-c5cccc(F)c5F)nc-4cn3)on2)c(C(F)(F)F)c1 (centres unmarked) [Compound 2, Ethyl [2-(2,3-difluorophenyl)-5H-imidazo[4,5-d]pyridazin-5-yl]{3-[4-(propyloxy)-2-(trifluoromethyl)phenyl]-5-isoxazolyl}acetate] | 12 | 4 | – | –
3 | CCCOC(=O)C(c1cc(-c2ccc(OCCC)cc2C(F)(F)F)no1)n1cc2nc(-c3cccc(F)c3F)nc-2cn1 (centres unmarked) [Compound 3, Propyl [2-(2,3-difluorophenyl)-5H-imidazo[4,5-d]pyridazin-5-yl]{3-[4-(propyloxy)-2-(trifluoromethyl)phenyl]-5-isoxazolyl}acetate] | 20 | 5 | – | –
4 | CCCOc1ccc(-c2cc(C(C(=O)OC(C)C)n3cc4nc(-c5cccc(F)c5F)nc-4cn3)on2)c(C(F)(F)F)c1 (centres unmarked) [Compound 4, 1-Methylethyl [2-(2,3-difluorophenyl)-5H-imidazo[4,5-d]pyridazin-5-yl]{3-[4-(propyloxy)-2-(trifluoromethyl)phenyl]-5-isoxazolyl}acetate] | 30 | 10 | – | –
5 | CCCOc1ccc(-c2cc(C(C(=O)OCCCO)n3cc4nc(-c5cccc(F)c5F)nc-4cn3)on2)c(C(F)(F)F)c1 (centres unmarked) [Compound 5, 3-Hydroxypropyl [2-(2,3-difluorophenyl)-5H-imidazo[4,5-d]pyridazin-5-yl]{3-[4-(propyloxy)-2-(trifluoromethyl)phenyl]-5-isoxazolyl}acetate] | 24 | 6 | – | –
6 | CCCOc1ccc(-c2cc(C(C(=O)OC(C)(C)C)n3cc4nc(-c5cccc(F)c5F)nc-4cn3)on2)c(C(F)(F)F)c1 (centres unmarked) [Compound 6, 1,1-Dimethylethyl [2-(2,3-difluorophenyl)-5H-imidazo[4,5-d]pyridazin-5-yl]{3-[4-(propyloxy)-2-(trifluoromethyl)phenyl]-5-isoxazolyl}acetate] | 65 | 16 | – | –
7 | CCCCOC(=O)C(c1cc(-c2ccc(OCCC)cc2C(F)(F)F)no1)n1cc2nc(-c3cccc(F)c3F)nc-2cn1 (centres unmarked) [Compound 7, Butyl [2-(2,3-difluorophenyl)-5H-imidazo[4,5-d]pyridazin-5-yl]{3-[4-(propyloxy)-2-(trifluoromethyl)phenyl]-5-isoxazolyl}acetate] | 11 | 5 | – | –
8 | CCCOc1ccc(-c2cc(C(C(=O)OCCOCCO)n3cc4nc(-c5cccc(F)c5F)nc-4cn3)on2)c(C(F)(F)F)c1 (centres unmarked) [Compound 8, 2-[(2-Hydroxyethyl)oxy]ethyl [2-(2,3-difluorophenyl)-5H-imidazo[4,5-d]pyridazin-5-yl]{3-[4-(propyloxy)-2-(trifluoromethyl)phenyl]-5-isoxazolyl}acetate] | 7 | 3 | – | –
9 | CCCOc1ccc(-c2cc(C(C(=O)OCCOCCOC)n3cc4nc(-c5cccc(F)c5F)nc-4cn3)on2)c(C(F)(F)F)c1 (centres unmarked) [Compound 9, 2-{[2-(Methyloxy)ethyl]oxy}ethyl [2-(2,3-difluorophenyl)-5H-imidazo[4,5-d]pyridazin-5-yl]{3-[4-(propyloxy)-2-(trifluoromethyl)phenyl]-5-isoxazolyl}acetate] | 2 | 4 | – | –
10 | CCCOc1ccc(-c2cc(C(C(=O)OCCOCCOCCO)n3cc4nc(-c5cccc(F)c5F)nc-4cn3)on2)c(C(F)(F)F)c1 (centres unmarked) [Compound 11, 2-({2-[(2-Hydroxyethyl)oxy]ethyl}oxy)ethyl [2-(2,3-difluorophenyl)-5H-imidazo[4,5-d]pyridazin-5-yl]{3-[4-(propyloxy)-2-(trifluoromethyl)phenyl]-5-isoxazolyl}acetate] | 21 | 3 | – | –
11 | CCCOc1ccc(-c2cc(C(C(=O)OCCOCCOCCOCCO)n3cc4nc(-c5cccc(F)c5F)nc-4cn3)on2)c(C(F)(F)F)c1 (centres unmarked) [Compound 12, 2-{[2-({2-[(2-Hydroxyethyl)oxy]ethyl}oxy)ethyl]oxy}ethyl [2-(2,3-difluorophenyl)-5H-imidazo[4,5-d]pyridazin-5-yl]{3-[4-(propyloxy)-2-(trifluoromethyl)phenyl]-5-isoxazolyl}acetate] | 17 | 1 | – | –
12 | CCCOc1ccc(-c2cc(C(C(=O)OCCCOP(=O)(O)O)n3cc4nc(-c5cccc(F)c5F)nc-4cn3)on2)c(C(F)(F)F)c1 (centres unmarked) [Compound 14, 3-(Phosphonooxy)propyl [2-(2,3-difluorophenyl)-5H-imidazo[4,5-d]pyridazin-5-yl]{3-[4-(propyloxy)-2-(trifluoromethyl)phenyl]-5-isoxazolyl}acetate mono sodium salt] | – | – | 42 | 3
13 | CCCOc1ccc(-c2cc(C(C(=O)OCCCOS(=O)(=O)O)n3cc4nc(-c5cccc(F)c5F)nc-4cn3)on2)c(C(F)(F)F)c1 (centres unmarked) [Compound 15, 3-(Sulfooxy)propyl [2-(2,3-difluorophenyl)-5H-imidazo[4,5-d]pyridazin-5-yl]{3-[4-(propyloxy)-2-(trifluoromethyl)phenyl]-5-isoxazolyl}acetate sodium salt] | 14 | 2 | – | –
14 | CCCOc1ccc(-c2cc(C(C(=O)OCCC(=O)O)n3cc4nc(-c5cccc(F)c5F)nc-4cn3)on2)c(C(F)(F)F)c1 (centres unmarked) [Compound 16, 3-[([2-(2,3-Difluorophenyl)-5H-imidazo[4,5-d]pyridazin-5-yl]{3-[4-(propyloxy)-2-(trifluoromethyl)phenyl]-5-isoxazolyl}acetyl)oxy]propanoic acid sodium salt] | 32 | 3 | – | –
15 | CCCOc1ccc(-c2cc(C(C(=O)NC)n3cc4nc(-c5cccc(F)c5F)nc-4cn3)on2)c(C(F)(F)F)c1 (centres unmarked) [Compound 20, 2-[2-(2,3-Difluorophenyl)-5H-imidazo[4,5-d]pyridazin-5-yl]-N-methyl-2-{3-[4-(propyloxy)-2-(trifluoromethyl)phenyl]-5-isoxazolyl}acetamide] | 920 | 65 | – | –
16 | CCCOc1ccc(-c2ccc(C(C(=O)OC)n3cc4nc(-c5cccc(F)c5F)nc-4cn3)cn2)c(C(F)(F)F)c1 (centres unmarked) [Compound 39, Methyl [2-(2,3-difluorophenyl)-5H-imidazo[4,5-d]pyridazin-5-yl]{6-[4-(propyloxy)-2-(trifluoromethyl)phenyl]-3-pyridinyl}acetate] | 9440 | 800 | – | –
17 | CCCOc1ccc(-c2ccc(C(C(=O)OCC)n3cc4nc(-c5cccc(F)c5F)nc-4cn3)cn2)c(C(F)(F)F)c1 (centres unmarked) [Compound 40, Ethyl [2-(2,3-difluorophenyl)-5H-imidazo[4,5-d]pyridazin-5-yl]{6-[4-(propyloxy)-2-(trifluoromethyl)phenyl]-3-pyridinyl}acetate] | – | 440 | – | –
18 | CCCOC(=O)C(c1ccc(-c2ccc(OCCC)cc2C(F)(F)F)nc1)n1cc2nc(-c3cccc(F)c3F)nc-2cn1 (centres unmarked) [Compound 41, Propyl [2-(2,3-difluorophenyl)-5H-imidazo[4,5-d]pyridazin-5-yl]{6-[4-(propyloxy)-2-(trifluoromethyl)phenyl]-3-pyridinyl}acetate] | 900 | 2700 | – | –

Reference: patent US20110052534A1, “Imidazopyridazine Compounds for Treating Viral Infections” (priority 2009, published 2011)
